Molecules are shown by their SMILES. Structures can show the parent of a compound that is named as a salt.

For this experiment, the target named is T1, human LPA1 (Homo sapiens, UniProt Q92633).
T1 construct: expressed in transfected cells; host or cells: Chinese hamster ovary (CHO) cells
T1 sequence (Q92633 whole entry): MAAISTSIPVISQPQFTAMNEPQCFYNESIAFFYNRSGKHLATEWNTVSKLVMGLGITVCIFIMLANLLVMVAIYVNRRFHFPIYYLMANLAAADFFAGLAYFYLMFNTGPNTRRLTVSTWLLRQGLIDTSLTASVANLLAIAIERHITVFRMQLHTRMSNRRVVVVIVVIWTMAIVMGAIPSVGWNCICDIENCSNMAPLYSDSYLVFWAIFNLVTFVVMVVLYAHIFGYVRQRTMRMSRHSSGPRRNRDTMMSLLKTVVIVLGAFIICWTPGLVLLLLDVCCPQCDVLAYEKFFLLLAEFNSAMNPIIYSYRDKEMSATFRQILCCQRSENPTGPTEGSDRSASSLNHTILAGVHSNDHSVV
Nature of the experiment: LPA1 functional antagonist assay (calcium flux). Format: cell-based. The conditions noted are these: CHO cells overexpressing human LPA1; inhibition of calcium flux induced by 10 nM LPA; read-out: hLPA1 IC50. Put shortly:
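Dye-loaded CHO cells overexpressing human LPA1 (30 min, 37 °C) were preincubated 20 min at room temperature with compound (0.08 nM–5 μM; 0.5% DMSO; HBSS, 20 mM HEPES, 0.1% fatty-acid-free BSA), then stimulated with 10 nM LPA. IC50 is the concentration inhibiting 50% of LPA-induced calcium flux, from a 4-parameter logistic fit.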
(In general: A change in cytosolic calcium serves as a functional read-out for many receptors and channels.)
Broadly, the IC50 is the point on the concentration scale where inhibition reaches its midpoint. For the compound `Cc1nc(-c2nnn(C)c2CN(C)c2nccc(OC3CC3)n2)ccc1O[C@H]1CCC[C@H](C(=O)O)C1` [Example 253, (1S,3S)-3-((6-(5-(((4-cyclopropoxypyrimidin-2-yl)(methyl)amino)methyl)-1-methyl-1H-1,2,3-triazol-4-yl)-2-methylpyridin-3-yl)oxy)cyclohexane-1-carboxylic acid], the IC50 is 28 nM.
For `Cc1nc(-c2nnn(C)c2CNc2nccc(C(C)(F)F)n2)ccc1O[C@H]1CCC[C@H](C(=O)O)C1` [Example 133] the value was 116 nM.
For `Cc1nc(-c2nnn(C)c2CNc2nccc(Oc3ccc(Cl)nc3)n2)ccc1O[C@H]1CCC[C@H](C(=O)O)C1` [Example 84] the value was 383 nM.
On to `CCc1ncnc(OCc2c(-c3ccc(O[C@H]4CCC[C@H](C(=O)O)C4)c(C)n3)nnn2C)n1` [Example 311], for which the IC50 came out at 44 nM.
For `Cc1nc(-c2nnn(C)c2CNc2nccc(NCCc3ccccc3)n2)ccc1O[C@H]1CCC[C@H](C(=O)O)C1` [Example 63] the value was 86 nM.
For `Cc1nc(-c2nnn(C)c2CNc2nccc(C3CC3)n2)ccc1O[C@H]1CCC[C@H](C(=O)O)C1` [Example 9] the value was 36 nM.
With `Cc1nc(-c2nnn(C)c2CNc2ccnc(OCC(C)(F)F)n2)ccc1O[C@H]1CCC[C@H](C(=O)O)C1` [Example 77], the half-maximal inhibitory concentration (IC50) turned out to be 65 nM.
`CCCCc1cnnc(NCc2c(-c3ccc(O[C@H]4CCC[C@H](C(=O)O)C4)c(C)n3)nnn2C)c1` [Example 189, (1S,3S)-3-((6-(5-(((5-Butylpyridazin-3-yl)amino)methyl)-1-methyl-1H-1,2,3-triazol-4-yl)-2-methylpyridin-3-yl)oxy)cyclohexane-1-carboxylic acid, bis TFA salt]: the IC50 worked out at 108 nM.
Consider `Cc1nc(-c2nnn(C)c2CNc2cc(C(C)(C)C)ccn2)ccc1O[C@H]1CCC[C@H](C(=O)O)C1` [Example 150], for which the IC50 was determined as 84 nM.
The value for `Cc1nc(-c2nnn(C)c2COc2nccc(COC3CC3)n2)ccc1O[C@H]1CCC[C@H](C(=O)O)C1` [Example 321] was 37 nM.
The value for `CCOc1ncnc(NCc2c(-c3ccc(O[C@H]4CCC[C@H](C(=O)O)C4)c(C)n3)nnn2C)n1` [Example 208, (1S,3S)-3-((6-(5-(((4-Ethoxy-1,3,5-triazin-2-yl)amino)methyl)-1-methyl-1H-1,2,3-triazol-4-yl)-2-methyl-pyridin-3-yl)oxy)cyclohexane-1-carboxylic acid] was 89 nM; that for `Cc1nc(-c2nnn(C)c2COc2cc(-n3cccc3)ncn2)ccc1O[C@H]1CCC[C@H](C(=O)O)C1` [Example 358] was 39 nM; that for `Cc1nc(-c2nnn(C)c2CNc2nccc(Oc3ccccc3)n2)ccc1O[C@H]1CCC[C@H](C(=O)O)C1` [Example 15] was 8 nM.
The value for `Cc1nc(-c2nnn(C)c2COc2cc(COC3CC3)ccn2)ccc1O[C@H]1CCC[C@H](C(=O)O)C1` [Example 323] was 71 nM; that for `Cc1nc(-c2nnn(C)c2COc2cc(C(F)F)ncn2)ccc1O[C@H]1CCC[C@H](C(=O)O)C1` [Example 296] was 16 nM.
For the compound `CCOc1ccnc(OCc2c(-c3ccc(O[C@H]4CCC[C@H](C(=O)O)C4)c(C)n3)nnn2C)c1` [Example 270], the IC50 was 5.3 nM.
For `Cc1ccc(Oc2ccnc(NCc3c(-c4ccc(O[C@H]5CCC[C@H](C(=O)O)C5)c(C)n4)nnn3C)n2)cc1` [Example 106] the value was 226 nM; for `COc1cc(OCc2c(-c3ccc(O[C@H]4CCC[C@H](C(=O)O)C4)c(C)n3)nnn2C)nc(OC)n1` [Example 279], 140 nM; for `CCc1nc(CC)nc(NCc2c(-c3ccc(O[C@H]4CCC[C@H](C(=O)O)C4)cn3)nnn2C)n1` [Example 225, (1S,3S)-3-((6-(5-(((4,6-diethyl-1,3,5-triazin-2-yl)amino)methyl)-1-methyl-1H-1,2,3-triazol-4-yl)pyridin-3-yl)oxy)cyclohexane-1-carboxylic acid], 789 nM.
The value for `Cc1nc(-c2nnn(C)c2CNc2ccnc(C3CC3)n2)ccc1O[C@H]1CCC[C@H](C(=O)O)C1` [Example 374] was 90 nM.

(Values after patent US11267800B2, “Cyclohexyl acid triazole azines as LPA antagonists” (BRISTOL-MYERS SQUIBB COMPANY, priority 2017, dated 2022).)
